US6160004A, “C-10 carbon-substituted artemisinin-like trioxane compounds having antimalarial, antiproliferative and antitumor activities” (priority 1998, dated 2000)
Like-named read-outs stand apart in the source and are kept apart here.

Experiments:
CCRF-CEM = experiment: cells; format: cell-based; conditions: Homo sapiens, 48 h
A498 = experiment: cells; format: cell-based; conditions: Homo sapiens, A498, renal cancer, 48 h
TK-10 = experiment: cells; format: cell-based; conditions: Homo sapiens, TK-10, renal cancer, 48 h
SF-268 = experiment: cells; format: cell-based; conditions: Homo sapiens, SF-268, CNS cancer, 48 h
UACC-257 = experiment: cells; format: cell-based; conditions: Homo sapiens, UACC-257, 48 h
MOLT-4 [1] = conditions: MOLT-4, FIG. 6
SK-MEL-28 = experiment: cells; format: cell-based; conditions: Homo sapiens, SK-MEL-28, melanoma, 48 h
U251 = experiment: cells; format: cell-based; conditions: Homo sapiens, U-251, U251, CNS cancer, 48 h
SN12C = experiment: NCI 60 cell line panel screening assay (SRB), SN12C; format: cell-based; conditions: Homo sapiens, renal cancer, 48 h
786-0 = experiment: cells; format: cell-based; conditions: Homo sapiens, 786-0, renal cancer, 48 h
DU-145 = experiment: cells; format: cell-based; conditions: Homo sapiens, DU-145, 48 h
RPMI-8226 = experiment: NCI 60 cell line panel screening assay (SRB), RPMI-8226; format: cell-based; conditions: Homo sapiens
UACC-62 = experiment: cells; format: cell-based; conditions: Homo sapiens
NCI-H226 = experiment: cells; format: cell-based; conditions: Homo sapiens, NCI-H226, 48 h, read-out: Log10 GI50 (converted)
HCT-116 = experiment: cells; format: cell-based; conditions: Homo sapiens, HCT-116, 48 h
KM12 = experiment: cells; format: cell-based; conditions: Homo sapiens, KM12, colon cancer, 48 h
SNB-75 = experiment: cells; format: cell-based; conditions: Homo sapiens; SNB-75, CNS cancer, 48 h; read-out: Log10 LC50 (converted)
MOLT-4 [2] = experiment: cells; conditions: Homo sapiens
SW-620 = experiment: NCI 60 cell line panel screening assay (SRB), SW-620; format: cell-based; conditions: Homo sapiens
HOP-92 = experiment: cells; format: cell-based; conditions: Homo sapiens, HOP-92, non-small cell lung cancer, 48 h
OVCAR-8 = experiment: cells; format: cell-based; conditions: Homo sapiens
60 cell line panel = experiment: NCI 60 cell line panel, whole panel
HT29 = experiment: cells; format: cell-based; conditions: Homo sapiens, HT-29, HT29, colon cancer, 48 h
NCI-H322M = experiment: cells; conditions: Homo sapiens, 48 h
HOP-62 = experiment: cells; format: cell-based; conditions: Homo sapiens, HOP-62, non-small cell lung cancer, 48 h
NCI-H23 = experiment: cells; format: cell-based; conditions: Homo sapiens; NCI-H23, non-small cell lung cancer, 48 h; read-out: Log10 GI50 (converted)
OVCAR-5 = experiment: cells; format: cell-based; conditions: Homo sapiens
RXF 393 = experiment: cells; format: cell-based; conditions: Homo sapiens, RXF 393, renal cancer, 48 h
COLO 205 = experiment: NCI 60 cell line panel screening assay (SRB), COLO 205; format: cell-based; conditions: Homo sapiens
K-562 = experiment: cells; format: cell-based; conditions: Homo sapiens
[3] = read-out: Log10 GI50 (converted)
[4] = read-out: Log10 LC50 (converted)

CC1CCC2C(C)C(CC(=O)c3cccc(C(=O)CC4OC5OC6(C)CCC7C(C)CCC(C4C)C57OO6)c3)OC3OC4(C)CCC1C32OO4 (stereo not shown) [Dimer 39]
greater than 10^-4 M: concentration for cytostasis (PG 0) (MOLT-4 [1])
0.00: Delta of Log10 TGI (60 cell line panel; panel) | Range of Log10 TGI (60 cell line panel; panel)
29.5 µM: GI50 (NCI-H226)
> 100 µM: GI50 (CCRF-CEM; [3]) | CC50 (CCRF-CEM; [4]) | IC (TGI) (CCRF-CEM; leukemia, read-out: Log10 TGI) | CC50 (A498; [4]) | IC (TGI) (A498; read-out: Log10 TGI) | GI50 (TK-10; [3]) | CC50 (TK-10; [4]) | IC (TGI) (TK-10; read-out: Log10 TGI) | GI50 (SF-268; [3]) | CC50 (SF-268; [4]) | IC (TGI) (UACC-257; read-out: Log10 TGI) | GI50 (UACC-257; [3]) | CC50 (UACC-257; [4]) | GI50 (SK-MEL-28; [3]) | CC50 (SK-MEL-28; [4]) | IC (TGI) (SK-MEL-28; read-out: Log10 TGI) | GI50 (U251; [3]) | CC50 (U251; [4]) | GI50 (SN12C; [3]) | CC50 (SN12C; [4]) | IC (TGI) (SN12C; read-out: Log10 TGI) | GI50 (786-0; [3]) | CC50 (786-0; [4]) | IC (TGI) (786-0; read-out: Log10 TGI) | GI50 (DU-145; [3]) | CC50 (DU-145; [4]) | IC (TGI) (DU-145; read-out: Log10 TGI) | CC50 (RPMI-8226; RPMI-8226, 48 h, read-out: Log10 LC50 (converted)) | GI50 (RPMI-8226; RPMI-8226, leukemia, 48 h, read-out: Log10 GI50 (converted)) | IC (TGI) (RPMI-8226; RPMI-8226, leukemia, 48 h, read-out: Log10 TGI) | IC (TGI) (UACC-62; UACC-62, 48 h, read-out: Log10 TGI) | GI50 (UACC-62; UACC-62, melanoma, 48 h, read-out: Log10 GI50 (converted)) | LC50 (UACC-62; UACC-62, melanoma, 48 h, read-out: Log10 LC50 (converted)) | GI50 (HCT-116; [3]) | CC50 (HCT-116; [4]) | GI50 (KM12; [3]) | CC50 (KM12; [4]) | CC50 (SNB-75) | CC50 (MOLT-4 [2]; MOLT-4, 48 h, read-out: Log10 LC50 (converted)) | IC (TGI) (MOLT-4 [2]; MOLT-4, 48 h, read-out: Log10 TGI) | CC50 (MOLT-4 [2]; MOLT-4, read-out: concentration for cytotoxicity (PG -50)) | IC50 (MOLT-4 [2]; MOLT-4, read-out: concentration for primary growth inhibition (PG +50)) | GI50 (SW-620; SW-620, 48 h, read-out: Log10 GI50 (converted)) | CC50 (SW-620; SW-620, colon cancer, 48 h, read-out: Log10 LC50 (converted)) | IC (TGI) (SW-620; SW-620, colon cancer, 48 h, read-out: Log10 TGI) | GI50 (HOP-92; [3]) | CC50 (HOP-92; [4]) | IC (TGI) (OVCAR-8; OVCAR-8, 48 h, read-out: Log10 TGI) | GI50 (OVCAR-8; OVCAR-8, ovarian cancer, 48 h, read-out: Log10 GI50 (converted)) | CC50 (OVCAR-8; OVCAR-8, ovarian cancer, 48 h, read-out: Log10 LC50 (converted)) | GI50 (HT29; [3]) | CC50 (HT29; [4]) | GI50 (NCI-H322M; [3]) | CC50 (NCI-H322M; [4]) | IC (TGI) (NCI-H322M; read-out: Log10 TGI) | GI50 (HOP-62; [3]) | LC50 (HOP-62; [4]) | GI50 (NCI-H23) | IC (TGI) (OVCAR-5; OVCAR-5, 48 h, read-out: Log10 TGI) | CC50 (OVCAR-5; OVCAR-5, ovarian cancer, 48 h, read-out: Log10 LC50 (converted)) | GI50 (RXF 393; [3]) | CC50 (RXF 393; [4]) | IC (TGI) (RXF 393; read-out: Log10 TGI) | CC50 (COLO 205; COLO 205, 48 h, read-out: Log10 LC50 (converted)) | GI50 (COLO 205; COLO 205, colon cancer, 48 h, read-out: Log10 GI50 (converted)) | CC50 (K-562; K562, 48 h, read-out: Log10 LC50 (converted)) | GI50 (K-562; K562, K-562, leukemia, 48 h, read-out: Log10 GI50 (converted))
100 µM: IC (TGI) (60 cell line panel; 60 cell, read-out: MG MID of Log10 TGI) | CC50 (60 cell line panel; Homo sapiens, 60 cell, read-out: MG MID of Log10 LC50 (converted))
